ChEMBL document CHEMBL4627361, “Decades-old renin inhibitors are still struggling to find a niche in antihypertensive therapy. A fleeting look at the old and the promising new molecules” (Bioorg Med Chem, 2020)
Values after ≈ are worked out from the molar mass of the structure shown.

Experiments:
[1] = Aqueous solubility of compound in pH 7.4; assay type: physicochemical
[2] = Octanol/water partition co-efficient, log P of compound at pH 7.4; assay type: physicochemical
[3] = Half life in human; assay type: ADME
[4] = Protein binding in human plasma; assay type: ADME, cell-free; details: read-out: PPB (converted)

solubility [1]: 350 mg/mL (≈ 634 mM) | logD [2]: 2.45 | half-life [3]: 24 h | fraction unbound [4]: 0.505
Structure (SMILES): COCCCOc1cc(C[C@@H](C[C@H](N)[C@@H](O)C[C@H](C(=O)NCC(C)(C)C(N)=O)C(C)C)C(C)C)ccc1OC
